In patent US20260285857A1, “BICYCLIC AND HETEROCYCLIC AMIDE COMPOUNDS” (priority 2024, published 2026) one finds DSF data, which are given here for 22 compounds.

Structures are written as SMILES.

In the assay the test system is immunoglobulin light chain protein WIL-FL T46L. Nature of the assay: Differential scanning fluorimetry (thermal shift) assay. It counts as binding. The note with it: Table B; temperature shift [Tm]compound-[Tm]vehicle; recombinant WIL-FL T46L.
On to `Cc1cc(N2CC[C@](C)(c3ccccc3)C2)cn2nc(C34CC(CO3)C4NCC(C)(C)O)nc12` (stereo partly drawn) [Compound 528, 2-methyl-1-[[1-[8-methyl-6-[(3R)-3-methyl-3-phenyl-pyrrolidin-1-yl]-[1,2,4]triazolo[1,5-a]pyridin-2-yl]-2-oxabicyclo[2.1.1]hexan-5-yl]amino]propan-2-ol], for which the DSF entry is listed as “***** (>2.5° C.=*****)”.
With `Cc1cc(N2CC[C@](C)(c3ccccc3)C2)cn2nc(C34CC(CO3)C4N3CC(C)(C)OC3=O)nc12` (stereo partly drawn) [Compound 529, 5,5-dimethyl-3-[1-[8-methyl-6-[(3R)-3-methyl-3-phenyl-pyrrolidin-1-yl]-[1,2,4]triazolo[1,5-a]pyridin-2-yl]-2-oxabicyclo[2.1.1]hexan-5-yl]oxazolidin-2-one] the entry was “***** (>2.5° C.=*****)”.
In the case of `Cc1cc(N2CC[C@](C)(c3ccccc3)C2)cn2nc(C34CC(CO3)C4NC3(C#N)CC3)nc12` (stereo partly drawn) [Compound 530, 1-((1-(8-methyl-6-((R)-3-methyl-3-phenylpyrrolidin-1-yl)-[1,2,4]triazolo[1,5-a]pyridin-2-yl)-2-oxabicyclo[2.1.1]hexan-5-yl)amino)cyclopropane-1-carbonitrile], the DSF entry was “***** (>2.5° C.=*****)”.
As for `Cc1cc(N2CC[C@](C)(c3ccccc3)C2)cn2nc(C34CC(CO3)C4N3CC4(CCN(c5cccc(C(=O)O)n5)C4)NC3=O)nc12` (stereo partly drawn) [Compound 531, 6-[3-[1-[8-methyl-6-[(3R)-3-methyl-3-phenyl-pyrrolidin-1-yl]-[1,2,4]triazolo[1,5-a]pyridin-2-yl]-2-oxabicyclo[2.1.1]hexan-5-yl]-2-oxo-1,3,7-triazaspiro[4.4]nonan-7-yl]pyridine-2-carboxylic acid], the DSF result is on record as “***** (>2.5° C.=*****)”.
With `Cc1cc(N2CC[C@](C)(c3ccccc3)C2)cn2nc(C34CC(CO3)C4N3CC4(CCC4)NC3=O)nc12` (stereo partly drawn) [Compound 532, 7-(1-(8-methyl-6-((R)-3-methyl-3-phenylpyrrolidin-1-yl)-[1,2,4]triazolo[1,5-a]pyridin-2-yl)-2-oxabicyclo[2.1.1]hexan-5-yl)-5,7-diazaspiro[3.4]octan-6-one] the entry was “***** (>2.5° C.=*****)”; with `Cc1cc(N2CC[C@](C)(c3ccccc3)C2)cn2nc(C34CC(CO3)C4NC(=O)C3(C)CN(c4cccc(C(=O)O)n4)C3)nc12` (stereo partly drawn) [Compound 533, 6-(3-methyl-3-((1-(8-methyl-6-((R)-3-methyl-3-phenylpyrrolidin-1-yl)-[1,2,4]triazolo[1,5-a]pyridin-2-yl)-2-oxabicyclo[2.1.1]hexan-5-yl)carbamoyl)azetidin-1-yl)picolinic acid], “***** (>2.5° C.=*****)”; with `C[C@]1(c2ccccc2)CCN(c2cc(CO)c3nc(C45CC(CO)(CO4)C5C(N)=O)nn3c2)C1` (stereo partly shown) [Compound 536], “***** (>2.5° C.=*****)”.
As for `Cc1cc(N2CC[C@](C)(c3ccccc3)C2)cn2nc(C34CC(C(=O)O)(CO3)C4C(=O)O)nc12` (stereo partly drawn) [Compound 537, 1-(8-methyl-6-((R)-3-methyl-3-phenylpyrrolidin-1-yl)-[1,2,4]triazolo[1,5-a]pyridin-2-yl)-2-oxabicyclo[2.1.1]hexane-4,5-dicarboxylic acid], the entry is “**** (>1.5-2.5° C.=****)”.
As for `Cc1n[nH]c(C2C3(NC(=O)[C@@H]4CC[C@H](C(=O)O)O4)COC2(c2nc4c(C)cc(N5CC[C@](C)(c6ccccc6)C5)cn4n2)C3)n1` (stereo partly drawn) [Compound 538, (2R,5S)-5-((5-(3-methyl-1H-1,2,4-triazol-5-yl)-1-(8-methyl-6-((R)-3-methyl-3-phenylpyrrolidin-1-yl)-[1,2,4]triazolo[1,5-a]pyridin-2-yl)-2-oxabicyclo[2.1.1]hexan-4-yl)carbamoyl)tetrahydrofuran-2-carboxylic acid], the entry is “***** (>2.5° C.=*****)”.
On to `Cc1cc(N2CC[C@](C)(c3ccccc3)C2)cn2nc(C34CC(N)(CO3)C4c3nc(C)n(C)n3)nc12` (stereo partly shown) [Compound 539], for which the DSF entry was “***** (>2.5° C.=*****)”.
As for `CC(=O)NC12COC(c3nc4c(C)cc(N5CC[C@](C)(c6ccccc6)C5)cn4n3)(C1)C2c1nc(C)n(C)n1` (stereo partly shown) [Compound 540], the entry is “***** (>2.5° C.=*****)”.
With `Cc1nc([C@H]2[C@@]3(C(C)(C)O)CO[C@]2(c2nc4c(C)cc(N5CC[C@](C)(c6ccccc6)C5)cn4n2)C3)n[nH]1` [Compound 541], the DSF result is on record as “***** (>2.5° C.=*****)”.
As for `Cc1nc([C@@H]2[C@]3(C(C)(C)O)CO[C@@]2(c2nc4c(C)cc(N5CC[C@](C)(c6ccccc6)C5)cn4n2)C3)n[nH]1` [Compound 542], the entry is “***** (>2.5° C.=*****)”; as for `CC(=O)N[C@@]12CO[C@@](c3nc4c(C)cc(N5CC[C@](C)(c6ccccc6)C5)cn4n3)(C1)[C@@H]2CO` [Compound 544, N-((1S,4S,5S)-5-(hydroxymethyl)-1-(8-methyl-6-((R)-3-methyl-3-phenylpyrrolidin-1-yl)-[1,2,4]triazolo[1,5-a]pyridin-2-yl)-2-oxabicyclo[2.1.1]hexan-4-yl)acetamide], “***** (>2.5° C.=*****)”; as for `Cc1cc(N2CC[C@](C)(c3ccccc3)C2)cn2nc(C34CC(C(=O)O)(CO3)C4c3nc(N)n[nH]3)nc12` (stereo partly drawn) [Compound 545, 5-(3-amino-1H-1,2,4-triazol-5-yl)-1-[8-methyl-6-[(3R)-3-methyl-3-phenyl-pyrrolidin-1-yl]-[1,2,4]triazolo[1,5-a]pyridin-2-yl]-2-oxabicyclo[2.1.1]hexane-4-carboxylic acid], “***** (>2.5° C.=*****)”.
For the compound `Cc1cc(N2CC[C@](C)(c3ccccc3)C2)cn2nc(C34CC(N5CCC(C(=O)O)CC5=O)(CO3)C4CO)nc12` (stereo partly drawn) [Compound 546, 1-(5-(hydroxymethyl)-1-(8-methyl-6-((R)-3-methyl-3-phenylpyrrolidin-1-yl)-[1,2,4]triazolo[1,5-a]pyridin-2-yl)-2-oxabicyclo[2.1.1]hexan-4-yl)-2-oxopiperidine-4-carboxylic acid], the DSF entry is given as “***** (>2.5° C.=*****)”.
Turning to `CCS(=O)(=O)Nc1n[nH]c(C2C3(CNC(=O)CC(C)(C)C(=O)O)COC2(c2nc4c(C)cc(N5CC[C@](C)(c6ccccc6)C5)cn4n2)C3)n1` (stereo partly drawn) [Compound 547, 4-[[5-[3-(ethylsulfonylamino)-1H-1,2,4-triazol-5-yl]-1-[8-methyl-6-[(3R)-3-methyl-3-phenyl-pyrrolidin-1-yl]-[1,2,4]triazolo[1,5-a]pyridin-2-yl]-2-oxabicyclo[2.1.1]hexan-4-yl]methylamino]-2,2-dimethyl-4-oxo-butanoic acid], the DSF result is “***** (>2.5° C.=*****)”.
With `CCS(=O)(=O)Nc1n[nH]c(C2C3(CN)COC2(c2nc4c(C)cc(N5CC[C@](C)(c6ccccc6)C5)cn4n2)C3)n1` (stereo partly shown) [Compound 548] the entry was “***** (>2.5° C.=*****)”.
As for `Cc1cc(N2CC[C@](C)(c3ccccc3)C2)cn2nc(C34CC(CO3)C4c3nc(NC(=O)c4cccc(C(=O)O)n4)n[nH]3)nc12` (stereo partly shown) [Compound 549], the entry is “***** (>2.5° C.=*****)”.
Take `Cc1cc(N2CC[C@](C)(c3ccccc3)C2)cn2nc(C34CC(CO3)C4c3nc(NC(=O)C4CC(C(=O)O)C4)n[nH]3)nc12` (stereo partly shown) [Compound 550]: the DSF result is recorded as “***** (>2.5° C.=*****)”.
As to `CCOC(=O)Nc1n[nH]c(C2C3COC2(c2nc4c(C)cc(N5CC[C@](C)(c6ccccc6)C5)cn4n2)C3)n1` (stereo partly shown) [Compound 551], the DSF entry is “***** (>2.5° C.=*****)”.
As for `Cc1cc(N2CC[C@](C)(c3ccccc3)C2)cn2nc(C34CC(CO3)C4c3nc(NC(=O)N4CC(C(=O)O)C4)n[nH]3)nc12` (stereo partly shown) [Compound 554], the DSF entry is reported as “***** (>2.5° C.=*****)”.
